# Test results as given in article PMC3917258, “6-Bromoisatin Found in Muricid Mollusc Extracts Inhibits Colon Cancer Cell Proliferation and Induces Apoptosis, Preventing Early Stage Tumor Formation in a Colorectal Cancer Rodent Model” (Marine Drugs, 2013).
# Legend:
# [1] = test system: lymphoma (U937) cell line; design: method as in PMID 17088067; settings: cited from earlier work
# [2] = test system: human promyelocytic leukemia (HL60) cancer cells; design: method as in PMID 11006132; settings: 100 µM; cited from earlier work
# ERK-2 = test system: ERK-2; design: method as in PMID 11006132; settings: 100 µM, compared to the control; cited from earlier work
# [3] = test system: human neuroblastoma SH-SY5Y cells; design: method as in PMID 15876476; settings: 50 µM; cited from earlier work
# [4] = test system: caspase 3/7 activity in HT29 cells; experiment: Caspase-Glo 3/7 assay; type: cell-based, human; settings: positive control, 5 µM, 12 h
# Experimental: All media and chemicals were purchased from Sigma Aldrich (Castle Hill, NSW, Australia) unless otherwise stated. HT29 human colorectal cancer cell line (passage no. 36-42) were cultured (37 °C and 5% CO2) in Dulbecco’s Modified Eagle’s Medium (DMEM) supplemented with 4500 mg/L L-glutamine, 10% FBS, 100 U/mL Penicillin/Streptomycin and 1% Non-essential Amino Acid (100×), until the cells reached 70% confluence. The cells were harvested from flasks by trypsinization (1× Trypsin-EDTA) and were seeded (20,000 cells/well) into clear 96-well plates (Costar®, Mt Martha, VIC, Australia) for measurement of cell viability and white (opaque) 96-well plates (Interpath, Heidelberg West, VIC, Australia) for determination of apoptosis and necrosis. HT29 cells were incubated for 48 h, then the media was removed and the cells were washed with PBS. To treat the cells, synthetic 6-bromoisatin was dissolved in 100% dimethylsulphoxide (DMSO) then diluted in media and added to the cells at a range of concentrations from 0.1 to 0.01 mg/mL, in triplicate (final DMSO concentration of 1%). 1% DMSO controls were also included on each plate. Staurosporine (5 µM) for apoptosis and lysis solution (5 μL/well, Promega, Alexandria, NSW, Australia) for necrosis were added to the white plates in triplicate, as positive controls. All cells were treated for 12 h. Morphological changes in the cells were observed on an Olympus CK2 inverted optical microscope (×400 magnification) 12 h after treatment. To measure cell viability, the MTT assay was applied, which measures the reduction of MTT tetrazolium salt to formazan, as previously described. To measure necrosis and apoptosis, CytoTox-ONE Homogeneous Membrane Integrity Assay reagent (Promega) and Caspase-Glo 3/7® assay (Promega) were applied respectively, according to our previous study. These assays were all repeated in triplicate on three separate occasions (n = 3).
structure (smiles),measurement,setting,value
O=C1Nc2ccc(F)cc2C1=O [5-fluoroisatin],activity for killing cancer cells relative to unsubstituted isatin,[1],5–10 times
"O=C1Nc2ccccc2C1=O [isatin, 1H-indole-2,3-dione]",reduction of cell proliferation,[2],80%
same,inhibition of phosphorylation of ERK-2,ERK-2,35%
same,apoptosis,[3],apoptosis was observed
O=C1Nc2ccc(I)cc2C1=O [5-iodo-],activity for killing cancer cells relative to unsubstituted isatin,[1],5–10 times
"CN[C@@H]1C[C@H]2O[C@@](C)([C@@H]1OC)n1c3ccccc3c3c4c(c5c6ccccc6n2c5c31)C(=O)NC4 [staurosporine, reference compound]",caspase 3/7 activity,[4],significant increase
O=C1Nc2ccc(Br)cc2C1=O [5-bromo-],activity for killing cancer cells relative to unsubstituted isatin,[1],5–10 times
